Test results as given in the CheMixHub viscosity set.
± gives the uncertainty stated by the source.

Experiment: xn = mol fraction of the nth substance listed

`CC(C)CO` + CCCCCCCCCC gave a viscosity (293.15 K, 100 kPa, x2 = 0.1004) of 2.872 ± 0.062 mPa·s, a viscosity (293.15 K, 100 kPa, x2 = 0.1999) of 2.191 ± 0.047 mPa·s and a viscosity (293.15 K, 100 kPa, x2 = 0.3) of 1.749 ± 0.038 mPa·s. For the same molecule, the viscosity (293.15 K, 100 kPa, x2 = 0.3999) was 1.456 ± 0.031 mPa·s, the viscosity (293.15 K, 100 kPa, x2 = 0.5002) was 1.254 ± 0.027 mPa·s and the viscosity (293.15 K, 100 kPa, x2 = 0.5996) was 1.117 ± 0.024 mPa·s. The viscosity (293.15 K, 100 kPa, x2 = 0.7006) was 1.024 ± 0.022 mPa·s, the viscosity (293.15 K, 100 kPa, x2 = 0.8) was 0.966 ± 0.021 mPa·s and the viscosity (293.15 K, 100 kPa, x2 = 0.9) was 0.933 ± 0.02 mPa·s. The viscosity (298.15 K, 100 kPa, x2 = 0.1004) was 2.471 ± 0.053 mPa·s, the viscosity (298.15 K, 100 kPa, x2 = 0.1999) was 1.906 ± 0.041 mPa·s and the viscosity (298.15 K, 100 kPa, x2 = 0.5002) was 1.131 ± 0.024 mPa·s. It also gave a viscosity (298.15 K, 100 kPa, x2 = 0.7006) of 0.941 ± 0.02 mPa·s, a viscosity (298.15 K, 100 kPa, x2 = 0.8) of 0.893 ± 0.019 mPa·s and a viscosity (298.15 K, 100 kPa, x2 = 0.9) of 0.863 ± 0.019 mPa·s. It also gave a viscosity (303.15 K, 100 kPa, x2 = 0.1004) of 2.139 ± 0.046 mPa·s, a viscosity (303.15 K, 100 kPa, x2 = 0.1999) of 1.673 ± 0.036 mPa·s and a viscosity (303.15 K, 100 kPa, x2 = 0.3) of 1.368 ± 0.029 mPa·s. The viscosity (303.15 K, 100 kPa, x2 = 0.3999) was 1.165 ± 0.025 mPa·s, the viscosity (303.15 K, 100 kPa, x2 = 0.5002) was 1.027 ± 0.022 mPa·s and the viscosity (303.15 K, 100 kPa, x2 = 0.5996) was 0.932 ± 0.02 mPa·s. For the same molecule, the viscosity (303.15 K, 100 kPa, x2 = 0.7006) was 0.869 ± 0.019 mPa·s, the viscosity (303.15 K, 100 kPa, x2 = 0.8) was 0.828 ± 0.018 mPa·s and the viscosity (303.15 K, 100 kPa, x2 = 0.9) was 0.803 ± 0.017 mPa·s. The viscosity (308.15 K, 100 kPa, x2 = 0.1004) was 1.863 ± 0.04 mPa·s, the viscosity (308.15 K, 100 kPa, x2 = 0.1999) was 1.476 ± 0.032 mPa·s and the viscosity (308.15 K, 100 kPa, x2 = 0.3) was 1.221 ± 0.026 mPa·s. The viscosity (308.15 K, 100 kPa, x2 = 0.3999) was 1.051 ± 0.023 mPa·s, the viscosity (308.15 K, 100 kPa, x2 = 0.5002) was 0.937 ± 0.02 mPa·s and the viscosity (308.15 K, 100 kPa, x2 = 0.5996) was 0.857 ± 0.018 mPa·s. For the same molecule, the viscosity (308.15 K, 100 kPa, x2 = 0.7006) was 0.806 ± 0.017 mPa·s, the viscosity (308.15 K, 100 kPa, x2 = 0.8) was 0.771 ± 0.017 mPa·s and the viscosity (308.15 K, 100 kPa, x2 = 0.9) was 0.75 ± 0.016 mPa·s. For the same molecule, the viscosity (313.15 K, 100 kPa, x2 = 0.1004) was 1.632 ± 0.035 mPa·s, the viscosity (313.15 K, 100 kPa, x2 = 0.1999) was 1.309 ± 0.028 mPa·s and the viscosity (313.15 K, 100 kPa, x2 = 0.3) was 1.095 ± 0.024 mPa·s. The viscosity (313.15 K, 100 kPa, x2 = 0.3999) was 0.954 ± 0.021 mPa·s, the viscosity (313.15 K, 100 kPa, x2 = 0.5002) was 0.859 ± 0.019 mPa·s and the viscosity (313.15 K, 100 kPa, x2 = 0.5996) was 0.793 ± 0.017 mPa·s. It also gave a viscosity (313.15 K, 100 kPa, x2 = 0.7006) of 0.749 ± 0.016 mPa·s, a viscosity (313.15 K, 100 kPa, x2 = 0.8) of 0.72 ± 0.016 mPa·s and a viscosity (313.15 K, 100 kPa, x2 = 0.9) of 0.702 ± 0.015 mPa·s. It also gave a viscosity (318.15 K, 100 kPa, x2 = 0.1004) of 1.436 ± 0.031 mPa·s, a viscosity (318.15 K, 100 kPa, x2 = 0.1999) of 1.167 ± 0.025 mPa·s and a viscosity (318.15 K, 100 kPa, x2 = 0.3) of 0.989 ± 0.021 mPa·s. The viscosity (318.15 K, 100 kPa, x2 = 0.3999) was 0.871 ± 0.019 mPa·s, the viscosity (318.15 K, 100 kPa, x2 = 0.5002) was 0.791 ± 0.017 mPa·s and the viscosity (318.15 K, 100 kPa, x2 = 0.5996) was 0.736 ± 0.016 mPa·s. For the same molecule, the viscosity (318.15 K, 100 kPa, x2 = 0.7006) was 0.699 ± 0.015 mPa·s, the viscosity (318.15 K, 100 kPa, x2 = 0.8) was 0.674 ± 0.015 mPa·s and the viscosity (318.15 K, 100 kPa, x2 = 0.9) was 0.66 ± 0.014 mPa·s. It also gave a viscosity (323.15 K, 100 kPa, x2 = 0.1004) of 1.272 ± 0.027 mPa·s, a viscosity (323.15 K, 100 kPa, x2 = 0.1999) of 1.046 ± 0.022 mPa·s and a viscosity (323.15 K, 100 kPa, x2 = 0.3) of 0.897 ± 0.019 mPa·s. It also gave a viscosity (323.15 K, 100 kPa, x2 = 0.3999) of 0.798 ± 0.017 mPa·s, a viscosity (323.15 K, 100 kPa, x2 = 0.5002) of 0.732 ± 0.016 mPa·s and a viscosity (323.15 K, 100 kPa, x2 = 0.5996) of 0.686 ± 0.015 mPa·s. For the same molecule, the viscosity (323.15 K, 100 kPa, x2 = 0.7006) was 0.654 ± 0.014 mPa·s, the viscosity (323.15 K, 100 kPa, x2 = 0.8) was 0.634 ± 0.014 mPa·s and the viscosity (323.15 K, 100 kPa, x2 = 0.9) was 0.622 ± 0.013 mPa·s.
In the case of `C1CCC2=[NH+]CCCN2CC1.c1nc[n-]n1` + CS(C)=O, the viscosity (303.15 K, 100 kPa, x1 = 0.1001) is reported as 3.86 ± 0.09 mPa·s, the viscosity (303.15 K, 100 kPa, x1 = 0.2) is reported as 7.19 ± 0.16 mPa·s and the viscosity (303.15 K, 100 kPa, x1 = 0.2999) is reported as 12.29 ± 0.28 mPa·s. The viscosity (303.15 K, 100 kPa, x1 = 0.4003) was 22.17 ± 0.51 mPa·s, the viscosity (303.15 K, 100 kPa, x1 = 0.4989) was 39.73 ± 0.95 mPa·s and the viscosity (303.15 K, 100 kPa, x1 = 0.6002) was 77.3 ± 2.1 mPa·s. The viscosity (303.15 K, 100 kPa, x1 = 0.7008) was 152.3 ± 6.6 mPa·s, the viscosity (303.15 K, 100 kPa, x1 = 0.7993) was 309.9 ± 21 mPa·s and the viscosity (303.15 K, 100 kPa, x1 = 0.9002) was 586.4 ± 53 mPa·s.
Molecule `CC(C)CO` + COC(C)(C)C has a viscosity (298.15 K, 101 kPa, x2 = 0.1007) of 2.39 ± 0.029 mPa·s, a viscosity (298.15 K, 101 kPa, x2 = 0.2009) of 1.72 ± 0.021 mPa·s and a viscosity (298.15 K, 101 kPa, x2 = 0.2996) of 1.27 ± 0.016 mPa·s. The viscosity (298.15 K, 101 kPa, x2 = 0.3951) was 0.987 ± 0.012 mPa·s, the viscosity (298.15 K, 101 kPa, x2 = 0.502) was 0.776 ± 0.01 mPa·s and the viscosity (298.15 K, 101 kPa, x2 = 0.6038) was 0.637 ± 0.008 mPa·s. The viscosity (298.15 K, 101 kPa, x2 = 0.7002) was 0.536 ± 0.007 mPa·s, the viscosity (298.15 K, 101 kPa, x2 = 0.8022) was 0.449 ± 0.006 mPa·s and the viscosity (298.15 K, 101 kPa, x2 = 0.9008) was 0.385 ± 0.005 mPa·s.
`CCOC(=O)CC` + CCCCCCC showed a viscosity (308.15 K, 101.3 kPa, x1 = 0.0514) of 0.356 ± 0.004 mPa·s, a viscosity (308.15 K, 101.3 kPa, x1 = 0.0967) of 0.36 ± 0.004 mPa·s and a viscosity (308.15 K, 101.3 kPa, x1 = 0.2165) of 0.369 ± 0.004 mPa·s. The viscosity (308.15 K, 101.3 kPa, x1 = 0.3027) was 0.376 ± 0.004 mPa·s, the viscosity (308.15 K, 101.3 kPa, x1 = 0.4024) was 0.386 ± 0.004 mPa·s and the viscosity (308.15 K, 101.3 kPa, x1 = 0.5033) was 0.396 ± 0.004 mPa·s. For the same molecule, the viscosity (308.15 K, 101.3 kPa, x1 = 0.588) was 0.406 ± 0.004 mPa·s, the viscosity (308.15 K, 101.3 kPa, x1 = 0.7003) was 0.421 ± 0.004 mPa·s and the viscosity (308.15 K, 101.3 kPa, x1 = 0.7994) was 0.435 ± 0.004 mPa·s. It also gave a viscosity (308.15 K, 101.3 kPa, x1 = 0.9003) of 0.45 ± 0.004 mPa·s, a viscosity (308.15 K, 101.3 kPa, x1 = 0.9484) of 0.458 ± 0.004 mPa·s and a viscosity (318.15 K, 101.3 kPa, x1 = 0.0514) of 0.325 ± 0.003 mPa·s. For the same molecule, the viscosity (318.15 K, 101.3 kPa, x1 = 0.0967) was 0.329 ± 0.003 mPa·s, the viscosity (318.15 K, 101.3 kPa, x1 = 0.2165) was 0.341 ± 0.003 mPa·s and the viscosity (318.15 K, 101.3 kPa, x1 = 0.3027) was 0.35 ± 0.004 mPa·s. For the same molecule, the viscosity (318.15 K, 101.3 kPa, x1 = 0.4024) was 0.36 ± 0.004 mPa·s, the viscosity (318.15 K, 101.3 kPa, x1 = 0.5033) was 0.372 ± 0.004 mPa·s and the viscosity (318.15 K, 101.3 kPa, x1 = 0.588) was 0.383 ± 0.004 mPa·s. It also gave a viscosity (318.15 K, 101.3 kPa, x1 = 0.7003) of 0.397 ± 0.004 mPa·s, a viscosity (318.15 K, 101.3 kPa, x1 = 0.7994) of 0.408 ± 0.004 mPa·s and a viscosity (318.15 K, 101.3 kPa, x1 = 0.9003) of 0.421 ± 0.004 mPa·s. It also gave a viscosity (318.15 K, 101.3 kPa, x1 = 0.9484) of 0.428 ± 0.004 mPa·s.
